One series concerns the target T1, IRE1α (Mus musculus, UniProt Q9EQY0).
T1 construct: expressed in transfected cells
Kind of series: IRE1α autophosphorylation by Phos-tag SDS-PAGE in INS-1 cells expressing IRE1α under Dox control. The settings on record: various concentrations, 5 ng/mL Dox. It is filed as cell-based, rat. The procedure:
We next tested PAIR1 and KIRA9 in an INS-1 rat insulinoma stable cell line where IRE1α activation can be achieved through conditional overexpression of a mouse IRE1α transgene (Han et al., 2009).
Treatment Conditions for Phostag Gels
INS-1 or IRE1α-overexpressing isogenic INS-1 cells were plated onto a 24-well Poly-D-Lysine coated tissue culture plate and grown for 48 hrs. Inhibitor or DMSO were added to the media and incubated for 1 hour at 37° C. with 5% CO2 prior to addition of ER stress agents. […] Cells were lysed directly into SDS loading buffer (50 mM Tris, 100 mM DTT, 2% SDS (w/v), 10% glycerol (v/v), and 0.1% bromophenol blue (w/v), pH 6.8) and boiled for five minutes prior to gel loading.
Phostag Acrylamide Gel Procedure
A phostag acrylamide gel recipe used to resolve phosphorylation of IRE1α has been previously established and this recipe was followed verbatim for this study.^91 Resolving gels were allowed to solidify (˜1.5 hr) before adding the stacking gel and comb and allowed to solidify (˜1 hr). Gels were run using Tris-Glycine-SDS running buffer (25 mM Tris, 192 mM glycine, 0.1% SDS, pH 8.3) at 100 V for 3-3.5 hours. After the gels have ran, they were transferred onto nitrocellulose paper via rapid transfer using a Transblot Turbo and premade transfer packs. Gels were transferred at 25 V, 2.5 A for 15 minutes. […]

The subject of a further series is mouse splenocytes. Kind of series: LPS-induced differentiation of mouse splenocytes into plasma cells (flow cytometry, IgM ELISA). It is filed as cell-based. The settings on record: 1 μg/mL LPS, three days; for IgM secretion / plasma cell (CD138+) differentiation: 20 μM-1.25 μM. The procedure: Therefore, we sought to compare the sensitivity of this process to both KIRAs and PAIRs. To this end, we assessed how KIRA8, KIRA9, and PAIR1 affected the differentiation of lipopolysaccharide (LPS)-treated mouse splenocytes into antibody-secreting plasma cells. Total live number of CD19+ B-cells were assessed and plasma cells were quantified on the basis of B220 downregulation and CD138 expression by flow cytometry (FIGS. 6A-6C, FIG. 24). Concomitantly, secreted IgM was measured in the cell culture supernatants by ELISA (FIG. 6C).
Splenocyte Isolation and Differentiation
Red blood cells were lysed with ammonium chloride potassium buffer. Splenocytes were plated at 2.5×10^5 cells/well in a 96-well round bottom plate in complete media. The splenocytes were treated with or without 1 μg/ml LPS 026:b6 (Sigma). […] The splenocytes were incubated for three days in a 37° C., 5% CO2 humidified chamber before collection and staining for flow cytometry.
Cells from the plasma cell assay were collected in a 96-well plate and washed with PBS followed by staining with LIVE/DEAD Fixable Near-IR Dead Cell Stain kit (Invitrogen). Reagent was reconstituted as per manufacturer's instructions, diluted 1:1000 in PBS, and cells were stained in 100 μL on ice for 20 minutes. The cells were then washed with FACS buffer, PBS (Corning), 2 mM EDTA and 2% heat inactivated fetal bovine serum (Omega Scientific). The cells were then stained with 50 μL antibody cocktail consisting of anti-CD19 (BioLegend), anti-CD45R (BD Pharmingen), and anti-CD138 (BioLegend) in FACS buffer on ice for 15 minutes. Cells were resuspended in FACS buffer and combined with an equal volume of 4% paraformaldehyde with 5000 Countbright Absolute Counting Beads (Thermofisher). Stained cells were analyzed on a Fortessa (Becton Dickinson). Data analysis was performed using FlowJo (v10) software (Treestar Inc.).
Media supernatants from the in vitro plasma cell differentiation assay were measured for secreted IgM by ELISA. […] Wash buffer (PBS with 0.05% Tween-20 (v/v)) was used for all washing steps and blocked with PBS-BB (PBS without Ca^2+/Mg^2+, 1% BSA (w/v), 0.05% Tween-20 (v/v)). Supernatants from LPS stimulated samples were diluted (1:100) and media only samples were diluted (1:10) in PBS-BB. […] ELISA plates were developed with TMB (Sigma) and stopped with 1N sulfuric acid. Absorbance was measured at 450 nm using spectrophotometer (Spectramax M5, Molecular Devices). Sample IgM concentration values were calculated with SoftMaxPro software.

Series [1] relates to INS-1 cells expressing IRE1α under Dox control. Nature of the series: RNA-Seq profiling of INS-1 cells conditionally overexpressing IRE1α. The series is classed as cell-based, rat. The settings on record: 20 μM, 5 ng/mL Dox. On the procedure: Next, to systematically compare the transcriptomic effects of PAIR1 and KIRA9, we profiled INS-1 cells that conditionally overexpress IRE1α by RNA Seq. As above (FIGS. 4A-4K), IRE1α overexpression was induced with doxycycline (Dox) and cells were treated with either DMSO, or equivalent concentrations of PAIR1 or KIRA9. Total RNA was submitted for sequencing across entire transcripts. The dense coverage of this dataset enabled us to distinguish the endogenous rat IRE1α expression from the induced mouse IRE1α transgene; there was greater than 10-fold induction of transgene expression with doxycycline (FIG. 22). Dense coverage across the Xbp1 locus also enabled quantification of XBP1 splicing based on the reduced density of reads mapping to the noncanonical XBP1 intron. Consistent with measurements of XBP1 splicing by isoform-specific PCR (FIG. 4C), overexpression induced XBP1 splicing was preserved in both DMSO and PAIR1-treated cells, but blocked in KIRA9-treated cells at 4 hours (FIGS. 23A-23B).
RNA Isolation and Preparation
Isogenic IRE1α-overexpressing INS-1 cells were pre-treated with inhibitors for 1 h followed by addition of Dox 5 ng/mL for 4 h and 24 h as indicated. All conditions for RNAseq analysis were performed in three biological replicates. RNA was isolated from whole cells using Qiagen RNeasy with gDNA eliminator kit. RNA purity was determined using a NanaPhotometer spectrometer (IMPLEN, CA, USA). RNA integrity and quantitation were assessed using the RNA Nano 6000 Assay Kit of the Bioanalyzer 2100 system (Agilent Technologies, CA, USA).
Quantification of Gene Expression Level
HTSeq v0.6.1 was used to count the reads numbers mapped to each gene. And then FPKM of each gene was calculated based on the length of the gene and reads count mapped to this gene.
Differential Expression Analysis
Differential expression analysis of two conditions/groups (three biological replicates per condition) was performed using the DESeq R package (1.18.0). DESeq provide statistical routines for determining differential expression in digital gene expression data using a model based on the negative binomial distribution. The resulting P-values were adjusted using the Benjamini and Hochberg's approach for controlling the false discovery rate. Genes with an adjusted P-value<0.05 found by DESeq were assigned as differentially expressed.

The record followed here is patent US11884649B2, “IRE1α inhibitors and uses thereof” (The Regents of the University of California, priority 2020, dated 2024).

T1 sequence (Q9EQY0 21-977): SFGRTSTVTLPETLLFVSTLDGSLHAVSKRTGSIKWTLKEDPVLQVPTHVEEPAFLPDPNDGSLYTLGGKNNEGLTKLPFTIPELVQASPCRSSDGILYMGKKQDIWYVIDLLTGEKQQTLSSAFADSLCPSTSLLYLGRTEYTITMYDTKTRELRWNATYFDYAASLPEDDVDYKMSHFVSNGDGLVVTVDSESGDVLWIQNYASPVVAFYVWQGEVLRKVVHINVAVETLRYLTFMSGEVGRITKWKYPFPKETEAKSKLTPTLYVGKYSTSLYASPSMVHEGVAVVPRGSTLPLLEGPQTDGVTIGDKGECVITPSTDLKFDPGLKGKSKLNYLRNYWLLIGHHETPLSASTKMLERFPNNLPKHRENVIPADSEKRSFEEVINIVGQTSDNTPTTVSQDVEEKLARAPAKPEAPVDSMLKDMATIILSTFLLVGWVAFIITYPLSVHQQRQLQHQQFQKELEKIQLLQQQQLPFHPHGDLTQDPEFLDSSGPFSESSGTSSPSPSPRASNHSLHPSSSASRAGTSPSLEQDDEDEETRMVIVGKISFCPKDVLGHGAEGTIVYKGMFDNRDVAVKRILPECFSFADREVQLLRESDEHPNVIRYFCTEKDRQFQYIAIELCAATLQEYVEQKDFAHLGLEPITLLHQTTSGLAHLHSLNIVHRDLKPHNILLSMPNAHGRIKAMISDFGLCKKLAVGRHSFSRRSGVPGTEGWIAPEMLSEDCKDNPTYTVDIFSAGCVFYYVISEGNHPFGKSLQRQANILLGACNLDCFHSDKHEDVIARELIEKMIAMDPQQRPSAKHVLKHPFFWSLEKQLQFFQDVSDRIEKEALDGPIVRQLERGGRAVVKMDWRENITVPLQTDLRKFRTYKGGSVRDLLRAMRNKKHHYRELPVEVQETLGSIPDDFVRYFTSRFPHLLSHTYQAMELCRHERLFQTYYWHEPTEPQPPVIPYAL

As for `O=S(=O)(CC(F)(F)F)Nc1ccc(Oc2ncccc2-c2ccnc(N[C@H]3CCCNC3)n2)c2ccccc12` (stereo in doubt) [PAIR1, 2,2,2-trifluoro-N-(4-(3-(2-(piperidin-3-ylamino)pyrimidin-4-yl)pyridin-2-yloxy)naphthalen-1-yl)ethanesulfonamide], the IRE1α autophosphorylation entry at IRE1α is reported as “equivalently block the autophosphorylation”. In addition, in the series with mouse splenocytes, the “overall number of B cells (CD19+), general toxicity” value is reported as “neither PAIR1 nor KIRA9 reduced the overall number of B cells”; the IgM secretion result is listed as “more modest inhibition”; the “plasma cell (CD138+) differentiation” value was “more modest inhibition”. Further, in series [1], the TXNIP upregulation result was “blocked”, the “downregulation of RIDD genes” value was “antagonized”, the “global decrease of secretome transcripts” value was “blocked” and the “upregulation of apoptosis genes” value is “largely blunted”. For the same compound, the “XBP1 splicing (read coverage)” value in series [1] (4 hours) is given as “preserved”. Moreover, in series [1] (24 hours), the “XBP1 splicing (read coverage)” value is “preserved”.

With `O=S(=O)(CCC(F)(F)F)Nc1ccc(Oc2ncccc2-c2ccnc(NC3CCCNC3)n2)c2ccccc12` (centres unmarked) [KIRA9, 3,3,3-trifluoro-N-(4-(3-(2-(piperidin-3-ylamino)pyrimidin-4-yl)pyridin-2-yloxy)naphthalen-1-yl)propane-1-sulfonamide], the IRE1α autophosphorylation entry at IRE1α is on record as “equivalently block the autophosphorylation”. Also, in the series on mouse splenocytes, the “overall number of B cells (CD19+), general toxicity” value is listed as “neither PAIR1 nor KIRA9 reduced the overall number of B cells”; the IgM secretion entry is “reductions in both plasma cell differentiation and IgM secretion in a dose-dependent manner”; the “plasma cell (CD138+) differentiation” value is “reductions in both plasma cell differentiation and IgM secretion in a dose-dependent manner”. In series [1], the TXNIP upregulation result is “blocked”, the “downregulation of RIDD genes” value is listed as “antagonized”, the “global decrease of secretome transcripts” value is “blocked” and the “upregulation of apoptosis genes” value was “largely blunted”. In series [1] (4 hours), the “XBP1 splicing (read coverage)” value is listed as “blocked”. For the same compound, the “XBP1 splicing (read coverage)” value in series [1] (24 hours) is “partially decreased”.
